In brackets after ≈: the same amount, converted by molar mass.
Assays:
Assay type in all cases: cell-based
E. coli BW25113 = test: MIC, microdilution in 96-well plates; conditions: Escherichia coli, BW25113, B: E. coli BW25113; read-out: MIC
Summary of the method: (§1)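 Determined via CLSI-guided microdilution: triplicate two-fold compound gradients, a DMSO vehicle column, and cultures seeded 1:10000 in LB from growing cells. Incubation lasted 16-18 hours at 37° C. under shaking, with MIC called as the lowest concentration lacking visible growth.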

Edwardsiella tarda = test: MIC, microdilution in 96-well plates; conditions: D: Edwardsiella tarda
Summary of the method: as §1

Streptococcus agalactiae = test: MIC, 20-strain panel
Summary of the method: as §1

[1] = tested on: Klebsiella pneumoniae subsp. pneumoniae; test: MIC, 20-strain panel; conditions: E: Klebsiella pneumoniae subsp. pneumoniae
Summary of the method: as §1

[2] = tested on: Salmonella enterica subsp. enterica typhimurium; test: MIC, 20-strain panel; conditions: F: Salmonella enterica subsp. enterica Typhimurium
Summary of the method: as §1

[3] = tested on: Staphylococcus epidermidis; test: MIC, 20-strain panel
Summary of the method: as §1

[4] = tested on: Staphylococcus aureus subsp. aureus; test: MIC, 20-strain panel; conditions: H: Staphylococcus aureus subsp. aureus, read-out: MIC
Summary of the method: as §1

Streptococcus pyogenes = test: MIC, 20-strain panel
Summary of the method: as §1

Shigella flexneri = test: MIC, 20-strain panel; conditions: G: Shigella flexneri
Summary of the method: as §1

[5] = tested on: Staphylococcus saprophyticus subsp. saprophyticus; test: MIC, 20-strain panel
Summary of the method: as §1

E. coli JW5503 (deltolC) = test: MIC, 20-strain panel; conditions: Escherichia coli, C: E. coli JW5503 (deltolC)
Summary of the method: as §1

E. coli MG1655 = test: MIC, 20-strain panel; conditions: Escherichia coli, MG1655, A: E. coli MG1655; read-out: MIC
Summary of the method: as §1

SMILES	MIC (E. coli BW25113)	MIC (Edwardsiella tarda)	MIC (Streptococcus agalactiae)	MIC [1]	MIC [2]	MIC [3]	MIC [4]	MIC (Streptococcus pyogenes)	MIC (Shigella flexneri)	MIC [5]	MIC (E. coli JW5503 (deltolC))	MIC (E. coli MG1655)
O=S(=O)(N[C@@H]1CCN(Cc2ccc(-c3ccccc3Cl)cc2)C1)c1cccc(OC(F)(F)F)c1 [Compound 75]	> 8 µg/mL	> 8 µg/mL	> 8 µg/mL	> 8 µg/mL	> 8 µg/mL	> 8 µg/mL	> 8 µg/mL	~8 µg/mL (≈ 15.7 µM)	> 8 µg/mL	> 8 µg/mL	~8 µg/mL (≈ 15.7 µM)	> 8 µg/mL
COc1ccccc1-c1ccc(CN2CC[C@@H](NS(=O)(=O)c3cccc(OC(F)(F)F)c3)C2)cc1 [Compound 76]	> 8 µg/mL	> 8 µg/mL	> 8 µg/mL	> 8 µg/mL	> 8 µg/mL	> 8 µg/mL	> 8 µg/mL	> 8 µg/mL	> 8 µg/mL	> 8 µg/mL	8 µg/mL (≈ 15.8 µM)	> 8 µg/mL
CC(C)Oc1ccc(CN2CC[C@@H](NS(=O)(=O)c3cc(F)cc(C(F)(F)F)c3)C2)cc1 [Compound 78]	> 8 µg/mL	> 8 µg/mL	> 8 µg/mL	> 8 µg/mL	> 8 µg/mL	> 8 µg/mL	> 8 µg/mL	> 8 µg/mL	> 8 µg/mL	> 8 µg/mL	~8 µg/mL (≈ 17.4 µM)	> 8 µg/mL
Cc1ccc(S(C)(=O)=O)cc1S(=O)(=O)N[C@@H]1CCN(Cc2ccc(OC3CC3)cc2)C1 [Compound 79]	> 8 µg/mL	> 8 µg/mL	> 8 µg/mL	> 8 µg/mL	> 8 µg/mL	> 8 µg/mL	> 8 µg/mL	> 8 µg/mL	> 8 µg/mL	> 8 µg/mL	> 8 µg/mL	> 8 µg/mL
COc1ccc(-c2ccc(CN3CC[C@@H](NS(=O)(=O)c4cccc(C#N)c4)C3)cc2)cc1 [Compound 80]	> 8 µg/mL	> 8 µg/mL	> 8 µg/mL	> 8 µg/mL	> 8 µg/mL	> 8 µg/mL	> 8 µg/mL	> 8 µg/mL	> 8 µg/mL	> 8 µg/mL	> 8 µg/mL	> 8 µg/mL
O=S(=O)(N[C@@H]1CCN(Cc2ccc(-c3ccccc3)cc2)C1)c1cc(C(F)(F)F)cc(C(F)(F)F)c1 [Compound 81]	> 8 µg/mL	> 8 µg/mL	> 8 µg/mL	> 8 µg/mL	> 8 µg/mL	8 µg/mL (≈ 15.1 µM)	> 8 µg/mL	~8 µg/mL (≈ 15.1 µM)	> 8 µg/mL	> 8 µg/mL	> 8 µg/mL	> 8 µg/mL
Cc1c(S(=O)(=O)N[C@@H]2CCN(Cc3ccc(-c4ccccc4)cc3)C2)sc2ccc(Cl)cc12 [Compound 82]	> 8 µg/mL	> 8 µg/mL	> 8 µg/mL	> 8 µg/mL	> 8 µg/mL	> 8 µg/mL	> 8 µg/mL	> 8 µg/mL	> 8 µg/mL	> 8 µg/mL	> 8 µg/mL	> 8 µg/mL
Cc1c(S(=O)(=O)N[C@@H]2CCN(Cc3ccc(OC(C)C)cc3)C2)sc2ccc(Cl)cc12 [Compound 83]	> 8 µg/mL	> 8 µg/mL	> 8 µg/mL	> 8 µg/mL	> 8 µg/mL	8 µg/mL (≈ 16.7 µM)	~8 µg/mL (≈ 16.7 µM)	8 µg/mL (≈ 16.7 µM)	> 8 µg/mL	> 8 µg/mL	8 µg/mL (≈ 16.7 µM)	> 8 µg/mL
CC(C)Oc1ccc(CN2CC[C@@H](NS(=O)(=O)c3cccc4cccnc34)C2)cc1 [Compound 84]	> 8 µg/mL	> 8 µg/mL	> 8 µg/mL	> 8 µg/mL	> 8 µg/mL	> 8 µg/mL	> 8 µg/mL	> 8 µg/mL	> 8 µg/mL	> 8 µg/mL	1 µg/mL (≈ 2.35 µM)	> 8 µg/mL
Cc1c(S(=O)(=O)N[C@@H]2CCN(Cc3ccc(OC4CC4)cc3)C2)sc2ccc(Cl)cc12 [Compound 85]	> 8 µg/mL	> 8 µg/mL	> 8 µg/mL	> 8 µg/mL	> 8 µg/mL	4 µg/mL (≈ 8.38 µM)	~8 µg/mL (≈ 16.8 µM)	8 µg/mL (≈ 16.8 µM)	> 8 µg/mL	> 8 µg/mL	~8 µg/mL (≈ 16.8 µM)	> 8 µg/mL
CSc1ccc(CN2CC[C@@H](NS(=O)(=O)c3cccc(C(F)(F)F)c3)C2)cc1 [Compound 86]	> 8 µg/mL	> 8 µg/mL	> 8 µg/mL	> 8 µg/mL	> 8 µg/mL	> 8 µg/mL	> 8 µg/mL	> 8 µg/mL	> 8 µg/mL	> 8 µg/mL	4 µg/mL (≈ 9.29 µM)	> 8 µg/mL

Reference: patent US10253039B2, “Inhibitors of bacterial DNA gyrase with efficacy against gram-negative bacteria” (priority 2014, dated 2019)
